Reference: patent US8541379B2 (Ajinomoto Co., Inc., priority 2009, dated 2013)

Molecular target: T1, human CaSR (Homo sapiens, UniProt P41180, E1011Q)
T1 construct: expressed in transfected cells; host or cells: 293E cells (EBNA1-expressing HEK293, ATCC CRL-10852), transient transfection with Fugene6
T1 sequence (P41180 20-1078 E1011Q): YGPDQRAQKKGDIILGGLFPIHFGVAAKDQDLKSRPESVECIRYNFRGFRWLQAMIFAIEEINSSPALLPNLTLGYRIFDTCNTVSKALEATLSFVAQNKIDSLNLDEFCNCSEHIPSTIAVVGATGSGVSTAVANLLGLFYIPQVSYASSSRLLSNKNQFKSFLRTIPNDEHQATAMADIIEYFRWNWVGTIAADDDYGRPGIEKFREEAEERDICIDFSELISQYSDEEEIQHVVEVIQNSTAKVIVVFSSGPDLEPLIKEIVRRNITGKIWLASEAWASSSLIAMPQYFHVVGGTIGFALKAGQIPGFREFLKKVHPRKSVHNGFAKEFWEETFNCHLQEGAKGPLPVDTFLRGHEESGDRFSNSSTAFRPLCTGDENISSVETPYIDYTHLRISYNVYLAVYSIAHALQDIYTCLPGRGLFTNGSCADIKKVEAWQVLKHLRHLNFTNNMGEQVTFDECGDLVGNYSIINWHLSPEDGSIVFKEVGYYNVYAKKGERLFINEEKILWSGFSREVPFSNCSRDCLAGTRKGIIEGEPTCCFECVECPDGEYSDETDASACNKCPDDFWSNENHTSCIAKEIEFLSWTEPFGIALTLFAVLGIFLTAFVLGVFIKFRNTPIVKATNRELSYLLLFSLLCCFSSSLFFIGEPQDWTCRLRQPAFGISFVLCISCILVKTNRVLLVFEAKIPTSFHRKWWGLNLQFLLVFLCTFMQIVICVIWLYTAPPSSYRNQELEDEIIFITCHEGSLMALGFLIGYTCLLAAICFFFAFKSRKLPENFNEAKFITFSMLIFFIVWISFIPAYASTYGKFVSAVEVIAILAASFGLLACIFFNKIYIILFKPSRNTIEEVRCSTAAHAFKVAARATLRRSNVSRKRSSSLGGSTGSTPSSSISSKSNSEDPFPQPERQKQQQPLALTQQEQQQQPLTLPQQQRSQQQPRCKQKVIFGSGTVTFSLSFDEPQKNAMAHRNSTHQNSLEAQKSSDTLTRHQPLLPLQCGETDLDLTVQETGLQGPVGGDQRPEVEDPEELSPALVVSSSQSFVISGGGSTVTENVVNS
Assay: Evaluation of CaSR agonist activity (Ca2+ fluorescence, hCaSR-transfected 293E cells)
Format: cell-based
Description: 293E Cells (EBNA1-expresion HEK293 cells, ATCC No. CRL-10852) were cultivated in DMEN/Ham's-F12 (3.15/mL glucose-containing Dulbecco's modified Eagle medium, available from Nakaraitesk Company) supplemented with 10% fetal calf serum, in the presence of 200 μg/mL of G418 (available from Genetisin). The cultured cells were inoculated in F25 flask at a density of 3×10^6 cells/10 mL, the flask was allowed to stand over 24 hours in a CO2 incubator (5% CO2, 37° C.), and then the human CaSR-expression plasmid hCaSR/pcDNA3.1 was transformed or transfected with a reagent for transfection Fugene6 (available from Roche Company). The transfected plasmid was maintained in a CO2 incubator for 6 to 7 hours, then the cells were recovered using a 10% fetal calf serum-containing DMEM/Ham's-F12 and the cells were inoculated in each well of a poly-D-lysine coat 96-well plate (BD-Biocoat) at a density of 70,000 cells/well.
To each well of the 96-well plate, each test compound was dissolved in a 0.1% BSA-containing Assay Buffer in an amount of 50 μl/well, and then any change of the intensity of fluorescence was monitored over 3 minutes using FLEX Station (available from Molecular Devices Company).
Method for the Determination of EC50:
The difference (RFU (Max-Min)) between the maximum and minimum fluorescent intensities observed for each well before and after the addition of each specific test compound was determined by the automatic calculation using FLEX Station. The activity rate was calculated while the RFU (Max-Min) value observed when adding the compound at the maximum concentration was defined to be 100% and the RFU (Max-Min) value observed when using the 0.1% BSA-containing Assay Buffer free of any test compound was defined to be 0%, followed by subjecting the resulting data to the curve-fitting procedures using the spreadsheet software Xfit or Graph-Pad-Prism to thus determine the EC50 which was the concentration of the compound at the activity rate of 50%.
In addition, the same EC50-determining procedures used above were repeated except for using other dipeptides as Comparative Examples.

EC50 (293E cells transfected with hCaSR/pcDNA3.1, Calcium 4 fluorescence, FLEX Station): 120 nM
SMILES: CCC[C@H](NC(=O)CC[C@H](N)C(=O)O)C(=O)O [γ-Glu-Nva, γ-L-glutamyl-L-norvaline]
CaSR agonist activity (compared with other dipeptides): strong CaSR agonist activity comparable to that observed for γ-Glu-Cys
